Values joined by “and” are separate entries in the source; they are usually repeats but may differ in a detail not shown here. Equal entries are not always repeated. Marks after values point to notes of the source that are not given here.
Columns and labels:
[1] = tested on: carrageenan-induced paw edema; assay: In vivo carrageenan-induced paw edema in mice; settings: for Thickness of Edema, 0 h / percentage anti-inflammatory activity (AI%), 2 h / Thickness of Edema, 2 h / percentage anti-inflammatory activity (AI%), 4 h / Thickness of Edema, 4 h / percentage anti-inflammatory activity (AI%), 6 h / Thickness of Edema, 6 h / percentage anti-inflammatory activity (AI%), 8 h / Thickness of Edema, 8 h: 10 µmol/kg b.wt po; for Thickness of Edema, 0 h / Thickness of Edema, 2 h / Thickness of Edema, 4 h / Thickness of Edema, 6 h / Thickness of Edema, 8 h: mean ± SEM, n = 5; for percentage anti-inflammatory activity (AI%), 2 h / Thickness of Edema, 2 h: 2 h after carrageenan; for percentage anti-inflammatory activity (AI%), 4 h / Thickness of Edema, 4 h: 4 h after carrageenan; for percentage anti-inflammatory activity (AI%), 6 h / Thickness of Edema, 6 h: 6 h after carrageenan; for percentage anti-inflammatory activity (AI%), 8 h / Thickness of Edema, 8 h: 8 h after carrageenan; for ED50: Mus musculus, paw edema inhibition 8 h after carrageenan, doses 5, 10, 20, 30 and 40 µmol/kg, read-out: ED50 (95% Confidence Level)
[2] = tested on: prostaglandin E2 (PGE2); assay: In vivo estimation of rat serum prostaglandin E2 (PGE2); settings: carrageenan-injected rats, 10 µmol/kg b.wt po, after 8 h; for PGE2 Serum Conc.: mean ± SEM, n = 5
Protocol: Measuring plasma levels of prostaglandin E2 is one of the substantial parameters in confirming the in vivo COX-2 inhibition.
(approved by HU-IACUC). For more details, see Page S16, Supplementary File. […]
4.2.4. Estimation of rat serum prostaglandin E2 (PGE2) […]
procedure using EIA PGE2 kit (Aldrich, Steinheim, Germany). The kits as well as blood samples were […]
to a monoclonal antibody to PGE2 in kit. Excess reagents were removed followed by adding the substrate was added and incubated for short time. When a yellow color generate the optical density […]

[3] = target: T1, (Ovis aries, UniProt P05979); assay: In vitro human COX-1 enzymatic inhibitory activity (Cayman COX inhibitor screening assay kit); format: biochemical; settings: mean ± SEM of triplicate determinations
T1 construct: purchased Cayman Chemicals Inc., Ann Arbor, MI, USA 560131
T1 sequence (P05979 25-600): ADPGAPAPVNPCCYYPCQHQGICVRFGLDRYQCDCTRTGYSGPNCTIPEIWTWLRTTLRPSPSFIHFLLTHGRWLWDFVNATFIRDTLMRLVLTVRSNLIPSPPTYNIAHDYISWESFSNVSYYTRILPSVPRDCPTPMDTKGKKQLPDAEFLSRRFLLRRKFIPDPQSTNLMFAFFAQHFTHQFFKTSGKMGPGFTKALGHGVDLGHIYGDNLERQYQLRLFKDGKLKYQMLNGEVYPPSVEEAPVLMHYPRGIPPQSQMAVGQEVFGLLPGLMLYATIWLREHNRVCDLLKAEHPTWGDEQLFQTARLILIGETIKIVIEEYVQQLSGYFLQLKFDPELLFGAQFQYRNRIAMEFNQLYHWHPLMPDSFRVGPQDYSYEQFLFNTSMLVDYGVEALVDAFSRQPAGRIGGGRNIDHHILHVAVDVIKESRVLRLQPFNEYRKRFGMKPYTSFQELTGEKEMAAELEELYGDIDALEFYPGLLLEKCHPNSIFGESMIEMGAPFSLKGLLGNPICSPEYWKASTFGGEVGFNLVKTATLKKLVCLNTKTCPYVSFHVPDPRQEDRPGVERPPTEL
Protocol: (§1) Inhibitory activities were defined as a test compound concentration achieving 50% human COX-1 or human COX-2 inhibition. The selectivity of compounds was referred to as a compound’s selectivity index values calculated as IC50 (COX-1)/IC50 (COX-2).
(§2) In vitro human COX-1 and human COX-2 enzymatic inhibitory activity of the tested compounds as well as the reference drugs was carried out according to the previously mentioned procedures; for details, see Page S15, Supplementary File.
(§3) 4.2. Biological screening
(§4) 4.2.1. In vitro human COX-1 and human COX-2 enzymatic inhibitory activities In vitro human COX-1 and human COX-2 enzymatic inhibitory activity of the tested compounds as well as the reference drugs was carried out according to the previously mentioned procedures [1][2]depending on Cayman colorimetric COX (ovine) inhibitor screening assay kit (Catalog No.
(§5) All reagents, test solutions and experimental procedures were performed in correspondence to both the manufacturer’s instructions and previously reported methods. Briefly, […] of different concentrations of tested compound solutions were added to a series of supplied reaction buffer solutions (960 µL, 0.1 M Tris-HCl, pH 8.0 containing 5 mM EDTA and 2 mM phenol) with either COX-1 or COX-2 (10 µL) enzyme in the presence of heme (10 µL). 10 µL of Arachidonic Acid (100 µM) solution were added to the mixtures of the enzyme and tested compounds, After incubating for 5 min at 25 °C followed by stopping COX reaction by adding of 50 µL of 1 M HCl. Moreover, after adding 100 µL of saturated stannous chloride solution, the absorbance was measured spectrophotometrically using plate reader. measuring the […]
(§6) percentage of human COX-1 or human COX-2 enzymatic inhibition of five different concentrations of each compound and then concentration-inhibition response curve were plotted to obtain IC50 values(three determinations). […]

[4] = target: T2, human COX-2 (Homo sapiens, UniProt P35354); assay: In vitro human COX-2 enzymatic inhibitory activity (Cayman COX inhibitor screening assay kit); format: biochemical; settings: for SI COX-1/COX-2: COX-2 selectivity index: COX-1 IC50/COX-2 IC50; for IC50: mean ± SEM of triplicate determinations
T2 construct: purchased Cayman Chemicals Inc., Ann Arbor, MI, USA 560131
T2 sequence (P35354 18-604): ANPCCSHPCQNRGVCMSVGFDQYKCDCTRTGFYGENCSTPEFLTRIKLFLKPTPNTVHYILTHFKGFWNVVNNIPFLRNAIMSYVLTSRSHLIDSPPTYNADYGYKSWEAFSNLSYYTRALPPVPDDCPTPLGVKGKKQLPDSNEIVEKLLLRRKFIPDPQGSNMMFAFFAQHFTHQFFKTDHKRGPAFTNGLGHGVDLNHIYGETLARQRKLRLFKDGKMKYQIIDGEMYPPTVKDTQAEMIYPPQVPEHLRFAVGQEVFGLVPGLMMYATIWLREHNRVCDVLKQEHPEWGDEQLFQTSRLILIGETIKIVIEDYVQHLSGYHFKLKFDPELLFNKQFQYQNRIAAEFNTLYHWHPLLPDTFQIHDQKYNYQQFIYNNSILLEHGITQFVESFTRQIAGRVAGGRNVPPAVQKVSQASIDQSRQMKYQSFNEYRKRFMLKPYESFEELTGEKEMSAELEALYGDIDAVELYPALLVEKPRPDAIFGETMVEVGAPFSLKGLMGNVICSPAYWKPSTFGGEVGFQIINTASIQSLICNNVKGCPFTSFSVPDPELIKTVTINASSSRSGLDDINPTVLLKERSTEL
Protocol: as §1, §2, §3, §4, §5, §6

Row | Compound | Thickness of Edema, 0 h [1] | percentage anti-inflammatory activity (AI%), 2 h [1] | Thickness of Edema, 2 h [1] | percentage anti-inflammatory activity (AI%), 4 h [1] | Thickness of Edema, 4 h [1] | percentage anti-inflammatory activity (AI%), 6 h [1] | Thickness of Edema, 6 h [1] | percentage anti-inflammatory activity (AI%), 8 h [1] | Thickness of Edema, 8 h [1] | ED50 [1] | % Inhibition of PGE2 production [2] | PGE2 Serum Conc. [2] | % Inhibition of PGE2 production ([2]; listed as celecoxib) | melting point | IC50 [3] | SI COX-1/COX-2 [4] | IC50 [4]
1 | Cc1ccc(-c2cc(C(F)(F)F)nn2-c2ccc(S(N)(=O)=O)cc2)cc1 [Celecoxib, celecoxib, reference compound] | 2.10 ± 0.005 mm | 70.86% | 2.54 ± 0.007 mm | 79.27% | 2.44 ± 0.011 mm | 87.28% | 2.32 ± 0.010 mm | 89.01% | 2.30 ± 0.009 mm | 16.2 µmol/kg | 78.62% | 157.245 ± 7.33 ^c,d pg/mL | 78.62% |  |  |  | 
2 | CC(=NNC(=O)C(C)c1ccc(CC(C)C)cc1)c1nnn(-c2ccc(S(=O)(=O)Nc3ncccn3)cc2)c1C (stereo not shown) [Compound 6c, 4-(4-(1-(2-(2-(4-Isobutylphenyl)propanoyl)hydrazineylidene)ethyl)-5-methyl-1H-1,2,3-triazol-1-yl)-N-(pyrimidin-2-yl)benzenesulfonamide] |  |  |  |  |  |  |  |  |  |  |  |  |  | 257 to 259 °C | 11170 ± 33.3 nM | 159.57 | 70 ± 0.6 nM
3 | CC(=NNC(=O)c1ccccc1O)c1nnn(-c2ccc(S(N)(=O)=O)cc2)c1C [Compound 6g, 4-(4-(1-(2-(2-Hydroxybenzoyl)hydrazineylidene)ethyl)-5-methyl-1H-1,2,3-triazol-1-yl)benzenesulfonamide] |  |  |  |  |  |  |  |  |  |  |  |  |  | 220 to 222 °C | 6670 ± 66.7 nM | 83.38 | 80 ± 0.6 nM
4 | CC(=O)c1nnn(-c2ccc(S(=O)(=O)Nc3ncccn3)cc2)c1C [Compound 4c, 4-(4-Acetyl-5-methyl-1H-1,2,3-triazol-1-yl)-N-(pyrimidin-2-yl)benzenesulfonamide] |  |  |  |  |  |  |  |  |  |  |  |  |  | 233 to 235 °C | 8230 ± 66.7 nM | 91.44 | 90 ± 0.3 nM
5 | [N-]=[N+]=Nc1ccc(S(=O)(=O)Nc2ncccn2)cc1 [Compound 1c, 4-Azido-N-(pyrimidin-2-yl)benzenesulfonamide] |  |  |  |  |  |  |  |  |  |  |  |  |  |  | 5930 ± 88.2 nM | 65.89 | 90 ± 0.6 nM
6 | O=C(O)Cc1ccccc1Nc1c(Cl)cccc1Cl [Diclofenac, diclofenac, reference compound] | 2.08 ± 0.006 mm | 41.72% | 2.96 ± 0.009 mm | 55.49% | 2.81 ± 0.009 mm | 67.63% | 2.64 ± 0.01 mm | 72.53% | 2.58 ± 0.01 mm | 18.4 µmol/kg | 72.27% | 203.973 ± 6.35 ^c,d pg/mL |  |  |  |  | 
7 | CC(=NNC(=O)C(C)c1ccc(CC(C)C)cc1)c1nnn(-c2ccc(S(=O)(=O)Nc3nccs3)cc2)c1C (stereo not shown) [Compound 6b, 4-(4-(1-(2-(2-(4-Isobutylphenyl)propanoyl)hydrazineylidene)ethyl)-5-methyl-1H-1,2,3-triazol-1-yl)-N-(thiazol-2-yl)benzenesulfonamide] | 2.14 ± 0.006 mm | 86.75% | 2.34 ± 0.009 mm | 94.51% | 2.23 ± 0.009 mm | 97.69% | 2.18 ± 0.009 mm | 99.45% | 2.15 ± 0.007 mm | 11.7 µmol/kg | 90.70% | 68.388 ± 7.13 ^c,d pg/mL |  |  | 13170 ± 120 nM | 329 and 329.25 | 40 ± 0.7 nM
8 | CC(=NNC(=O)c1ccccc1O)c1nnn(-c2ccc(S(=O)(=O)Nc3nccc(C)n3)cc2)c1C [Compound 6j, 4-(4-(1-(2-(2-Hydroxybenzoyl)hydrazineylidene)ethyl)-5-methyl-1H-1,2,3-triazol-1-yl)-N-(4-methylpyrimidin-2-yl)benzenesulfonamide] | 2.08 ± 0.007 mm | 73.51% | 2.48 ± 0.005 mm | 82.32% | 2.37 ± 0.009 mm | 88.44% | 2.28 ± 0.011 mm | 91.21% | 2.24 ± 0.009 mm | 13.4 µmol/kg | 86.34% | 100.435 ± 5.66 ^c,d pg/mL |  |  | 12500 ± 57.7 nM | 312 and 312.5 | 40 ± 0.6 nM
9 | Cc1ccnc(NS(=O)(=O)c2ccc(N=[N+]=[N-])cc2)n1 [Compound 1d, 4-Azido-N-(4-methylpyrimidin-2-yl)benzenesulfonamide] |  |  |  |  |  |  |  |  |  |  |  |  |  |  | 4600 ± 115 nM | 46 | 100 ± 3.3 nM
10 | CC(=NNC(=O)Cc1ccccc1Nc1c(Cl)cccc1Cl)c1nnn(-c2ccc(S(=O)(=O)Nc3nccs3)cc2)c1C [Compound 6e, 4-(4-(1-(2-(2-(2-((2,6-Dichlorophenyl)amino)phenyl)acetyl)hydrazineylidene)ethyl)-5-methyl-1H-1,2,3-triazol-1-yl)-N-(thiazol-2-yl)benzenesulfonamide] | 2.12 ± 0.007 mm | 58.28% | 2.75 ± 0.008 mm | 68.90% | 2.63 ± 0.010 mm | 75.72% | 2.54 ± 0.009 mm | 78.02% | 2.52 ± 0.006 mm | 18.2 µmol/kg | 74.80% | 185.329 ± 6.79 ^c,d pg/mL |  |  | 10230 ± 33.3 nM | 204 and 204.6 | 50 ± 0.6 nM

From article PMC9609428, “Rational Design and Synthesis of New Selective COX-2 Inhibitors with In Vivo PGE2-Lowering Activity by Tethering Benzenesulfonamide and 1,2,3-Triazole Pharmacophores to Some NSAIDs” (Pharmaceuticals, 2022)
